Tests used:
[1] = system: transgenic Camelina sativa lines bearing A122T mutated ALS gene; assay: Seedling herbicide assay, transgenic lines bearing A-mutated (A122T) ALS gene; type: in vivo; settings: for Effect as compared to control / Highest surviving concentration: T1, A122T
Experimental: Calena, as well as A9.1 (VK14A9.1) and A9.2 (VK14A9.4.2) of the second generation (T1) Camelina sativa v. Blane Creek. The seedlings were grown one week on the various concentrations of herbicides MSU, CSU and IMI. The concentrations are shown in mg/l. Control plate has no herbicide in the grown media.
(§1) Seedlings of the developed transgenic lines of Camelina sativa, cultivars Blane Creek and Calena second (T1) and fourth (T3) generations were exposed to various concentration of three herbicides: imidazolinone (IMI), chlorsulfuron (CSU) and metsulfuron (MSU). Resistance of the transgenic lines was compared to control non-transgenic seedlings of C. sativa cv. Blane Creek.
(§2) Seeds were sterilized in 2% Na-hypocloride and placed on wet filter paper in sterile conditions to allow germination. On the next day well-germinated seedlings were transferred on Petri dishes containing MS (Murasige-Scoog) 0.7% agar (without sucrose or hormones). Each dish contained one from the three herbicides in particular concentration (0.0001, 0.001, 0.01, 0.1, 1.0, 10, 100 mg/l). After one week of cultivation in vitro (+25° C./+18° C.; light/dark) the seedlings were photographed (as shown on the FIGS. 16A-16F). The highest survival concentration was found for each transgenic line and for each herbicide and compared to the non-transgenic control.

[2] = system: transgenic Camelina sativa lines bearing W574L mutated ALS gene; assay: Seedling herbicide assay, transgenic lines bearing W-mutated (W574L) ALS gene; type: in vivo; settings: for Effect as compared to control / Highest surviving concentration: Blane Creek
Experimental: Blane Creek and ALS23.3 (VK10A2.3) of the […] (T3) of Camelina sativa v. Blane Creek. The seedlings were grown one week on various concentrations of herbicides MSU, CSU and IMI. The concentrations are shown in mg/l. Control plate has no herbicide in the grown media.
as §1, §2

[3] = system: transgenic Camelina sativa lines bearing A122T-P197S-W574L mutated ALS gene; assay: Seedling herbicide assay, transgenic lines bearing triple (APW) mutated ALS gene; type: in vivo; settings: Blane Creek, T3, A122T-P197S-W574L
Experimental: Blane Creek. The seedlings were grown one week on various concentrations of herbicides MSU, CSU and IMI. The concentrations are shown in mg/l. Control plate has no herbicide in the grown media.
as §1, §2

[4] = system: non-transgenic seedlings of C. sativa cv. Blane Creek (wild type); assay: Seedling herbicide assay, highest survival concentration, non-transgenic control; type: in vivo, Camelina sativa; settings: for Highest surviving concentration: seedlings one week on MS agar
Description: as §1, §2

[5] = system: transgenic Camelina sativa lines bearing P197S mutated ALS gene; assay: Seedling herbicide assay, transgenic lines bearing P-mutated (P197S) ALS gene; type: in vivo; settings: for Effect as compared to control / Highest surviving concentration: T1, P197S
Experimental: Calena and A 10 (VK14A10.16) of the second generation (T1) Camelina sativa c. Blane Creek. The seedlings were grown one week on various concentrations of herbicides MSU, CSU and IMI. The concentrations are shown in mg/l.
as §1, §2

[6] = system: non-transgenic susceptible Camelina sativa leaf segments; assay: In vitro leaf segment test, non-transgenic control; type: cell-based; settings: media with 0.001, 0.01, 0.1, 1.0 mg/l herbicide, FIG. 13
Description: (§3) FIG. 13 In vitro leaf segment test of two transgenic C. sativa cv. Celine lines VK6-A1-No24 (shown as 24 on Petri dishes) and VK6-Al-No26 (shown as 26 on Petri dishes). As a control, leaf segments of herbicide resistant natural mutant of Camelina microcarpa (C.m.) and leaf segments of susceptible C. sativa (C.s.) were used. Leaf segments of transgenic plants are resistant to the herbicides, while non-transgenic Camelina sativa is susceptible. The media in Petri dishes contains herbicides in various concentrations from 0 mg/l in control plate to 0.001, 0.01, 0.1, 1.0 mg/l of IMI, MSU and CSU.
(§4) Celine lines VK6-A1-No24 and VK6-A1-No26 transformed with Al construct (35S promoter—ALS W574 mutant—35S terminator). As controls, we used leaf segments of herbicide resistant natural ALS mutant of Camelina microcarpa that has broad resistance to class-2 herbicides and leaf segments of susceptible Camelina sativa. From the figure it can be clearly seen that leaf segments of transgenic plants are resistant to the herbicides, while non-transgenic Camelina sativa is susceptible.

[7] = system: transgenic C. sativa cv. Celine lines VK6-A1-No24 and VK6-A1-No26 (35S promoter, ALS W574 mutant); assay: In vitro leaf segment test, transgenic lines; type: cell-based, Camelina sativa; settings: media with 0.001, 0.01, 0.1, 1.0 mg/l herbicide, FIG. 13
Description: as §3, §4

[8] = system: transgenic Camelina sativa lines bearing P197S-W574L mutated ALS gene; assay: Seedling herbicide assay, transgenic lines bearing double (PW) mutated ALS gene; type: in vivo; settings: for Effect as compared to control / Highest surviving concentration: Blane Creek, T3, P197S-W574L
Experimental: Blane Creek. The seedlings were grown one week on the various concentrations of herbicides MSU, CSU and IMI. The concentrations are shown in mg/l. Control plate has no herbicide in the growth media.
as §1, §2

[9] = line A9.1 (VK14A9.1), Blane Creek
[10] = line A9.2 (VK14A9.4.2), Blane Creek
[11] = line ALS23.3 (VK10A2.3), T3, W574L
[12] = line A10 (VK14A10.16), Blane Creek

SMILES | Effect as compared to control ([1]; line A3 (VK9A3.4.1), Calena) | Highest surviving concentration ([1]; line A3 (VK9A3.4.1), Calena) | Effect as compared to control [1, 9] | Highest surviving concentration [1, 9] | Effect as compared to control [1, 10] | Highest surviving concentration [1, 10] | spectrum of resistance of mutation W [2] | Effect as compared to control ([2]; line A2 (VK10A2.2), T1, W574L) | Highest surviving concentration ([2]; line A2 (VK10A2.2), T1, W574L) | Effect as compared to control [2, 11] | Highest surviving concentration [2, 11] | Effect as compared to control ([3]; line ALS 11.3 (VK10A5.3)) | Highest surviving concentration ([3]; line ALS 11.3 (VK10A5.3)) | Effect as compared to control ([3]; line ALS22.3 (VK13A15.12)) | Highest surviving concentration ([3]; line ALS22.3 (VK13A15.12)) | Effect as compared to control [4] | Highest surviving concentration [4] | Effect as compared to control ([5]; line A4 (VK9A4.4.2), Calena) | Highest surviving concentration ([5]; line A4 (VK9A4.4.2), Calena) | Effect as compared to control [5, 12] | also measured
COC(=O)c1ccccc1S(=O)(=O)NC(=O)Nc1nc(C)nc(OC)n1 [MSU, Metsulfuron-methyl] | 10 | 0.01 mg/L | 1 | 0.001 mg/L | 1 | 0.001 mg/L | less effective | 100 | 0.1 mg/L | 100 | 0.1 mg/L | 100 | 0.1 mg/L | 1 000 | 1.0 mg/L | 1 | 0.001 mg/L | 10 | 0.01 mg/L | 10 | Highest surviving concentration [5, 12]: 0.01 mg/L; response of leaf segments to the herbicides [6]: susceptible; response of leaf segments to the herbicides [7]: resistant; Effect as compared to control ([8]; line ALS7.3 (KK24A14.4)): 1 000; Highest surviving concentration ([8]; line ALS7.3 (KK24A14.4)): 1.0 mg/L; Effect as compared to control ([8]; line ALS8.3 (KK18A8)): 1 000; Highest surviving concentration ([8]; line ALS8.3 (KK18A8)): 1.0 mg/L; increase in resistance as compared to non-transgenic control ([8]; lines bearing double mutations PW): 1 000
COCc1cnc(C2=NC(C)(C(C)C)C(=O)N2)c(C(=O)O)c1 (stereo not drawn) [IMI, Imazamox] | 1 000 | 10 mg/L | 100 | 1.0 mg/L | 1 000 | 10 mg/L | good resistance | 10 000 | 100 mg/L | 1 000 | 10 mg/L | 1 000 | 10 mg/L | 1 000 | 10 mg/L | 1 | 0.01 mg/L | 10 | 0.1 mg/L | 10 | spectrum of resistance of mutation A [1]: specifically increased resistance; Highest surviving concentration [5, 12]: 0.1 mg/L; response of leaf segments to the herbicides [6]: susceptible; response of leaf segments to the herbicides [7]: resistant; Effect as compared to control ([8]; line ALS7.3 (KK24A14.4)): 1 000; Highest surviving concentration ([8]; line ALS7.3 (KK24A14.4)): 10 mg/L; Effect as compared to control ([8]; line ALS8.3 (KK18A8)): 1 000; Highest surviving concentration ([8]; line ALS8.3 (KK18A8)): 10 mg/L
COc1nc(C)nc(NC(=O)NS(=O)(=O)c2ccccc2Cl)n1 [CSU, Chlorsulfuron] | 10 | 0.01 mg/L | 1 | 0.001 mg/L | 10 | 0.01 mg/L | good resistance | 10 000 | 10 mg/L | 1 000 | 1.0 mg/L | 10 000 | 10 mg/L | 10 000 | 10 mg/L | 1 | 0.001 mg/L | 10 000 | 10 mg/L | 1 000 | spectrum of resistance of mutation P [5]: specifically increased resistance; Highest surviving concentration [5, 12]: 1.0 mg/L; response of leaf segments to the herbicides [6]: susceptible; response of leaf segments to the herbicides [7]: resistant; Effect as compared to control ([8]; line ALS7.3 (KK24A14.4)): 10 000; Highest surviving concentration ([8]; line ALS7.3 (KK24A14.4)): 10 mg/L; Effect as compared to control ([8]; line ALS8.3 (KK18A8)): 10 000; Highest surviving concentration ([8]; line ALS8.3 (KK18A8)): 10 mg/L

From patent publication US20130117887A1, “Herbicide resistant Camelina Sativa” (Agragen Inc, priority 2010, published 2013)
